Calls of active or inactive are those of the source. No cut-off for these calls is given here.
Legend:
HeLa = assay: Cytotoxicity against human HeLa cells assessed as reduction in cell viability by MTT assay; type: cell-based
[1] = Selectivity index, ratio of IC50 for human HeLa cells to ratio of IC50 for Toxoplasma gondii RH tachyzoites; type: toxicity; conditions: HeLa cells versus Toxoplasma gondii RH tachyzoites, read-out: Ratio IC50
Toxoplasma gondii [2] = assay: Antiparasitic activity against Toxoplasma gondii RH tachyzoites by MTT assay; type: functional, organism-based
Toxoplasma gondii [3] = assay: Antiparasitic activity against Toxoplasma gondii RH infected in Kunming mouse assessed as increase in survival rate by measuring mortality day at 100 mg/kg, po qd administered via gavage for several consecutive days measured on day 10 (reference value: 9 to 11 days); type: functional
Toxoplasma gondii [4] = assay: Antiparasitic activity against Toxoplasma gondii RH infected in Kunming mouse assessed as reduction in serum ALT level at 100 mg/kg, po qd administered via gavage for 4 consecutive days measured on day 5; type: functional, organism-based
Toxoplasma gondii [5] = assay: Antiparasitic activity against Toxoplasma gondii RH infected in Kunming mouse assessed as increase in GSH level in liver at 100 mg/kg, po qd administered via gavage for 4 consecutive days measured on day 5; type: functional, organism-based
Toxoplasma gondii [6] = assay: Antiparasitic activity against Toxoplasma gondii RH infected in Kunming mouse assessed as improvement of hepatomegaly at 100 mg/kg, po qd administered via gavage for 4 consecutive days measured on day 5; type: functional, organism-based
Toxoplasma gondii [7] = assay: Antiparasitic activity against Toxoplasma gondii RH infected in Kunming mouse assessed as survival rate at 100 mg/kg, po qd administered via gavage for several consecutive days measured on day 20 relative to control; type: functional; conditions: 480 h
Toxoplasma gondii [8] = assay: Antiparasitic activity against Toxoplasma gondii RH tachyzoites infected in human HeLa cells assessed as cell survival at 100 uM after 24 hrs by trypan blue assay (reference value: 20.8%); type: functional
Toxoplasma gondii [9] = assay: Antiparasitic activity against Toxoplasma gondii RH infected in Kunming mouse assessed as improvement of splenomegaly at 100 mg/kg, po qd administered via gavage for 4 consecutive days measured on day 5; type: functional, organism-based
Toxoplasma gondii [10] = assay: Antiparasitic activity against Toxoplasma gondii RH infected in Kunming mouse assessed as increase in body weight at 100 mg/kg, po qd administered via gavage for several consecutive days; type: functional, organism-based
Toxoplasma gondii [11] = assay: Antiparasitic activity against Toxoplasma gondii RH infected in Kunming mouse assessed as inhibition of number of intraperitoneal tachyzoite in abdominal cavity at 100 mg/kg, po qd administered via gavage for 4 consecutive days measured on day 5 by light microscopic analysis relative to control; type: functional; conditions: 120 h
Toxoplasma gondii [12] = assay: Antiparasitic activity against Toxoplasma gondii RH infected in Kunming mouse assessed as reduction in serum AST level at 100 mg/kg, po qd administered via gavage for 4 consecutive days measured on day 5; type: functional, organism-based
Toxoplasma gondii [13] = assay: Antiparasitic activity against Toxoplasma gondii RH infected in Kunming mouse assessed as decrease in GSH level in liver at 100 mg/kg, po qd administered via gavage for 4 consecutive days measured on day 5; type: functional, organism-based
Toxoplasma gondii [14] = assay: Antiparasitic activity against Toxoplasma gondii RH tachyzoites infected in human HeLa cells assessed as increase in cell survival at 100 uM after 24 hrs by trypan blue assay relative to spiramycin; type: functional
Toxoplasma gondii [15] = assay: Antiparasitic activity against Toxoplasma gondii RH tachyzoites infected in human HeLa cells assessed as decrease in number of cell death at 100 uM after 24 hrs by inverted optical microscopic analysis; type: functional, organism-based
Toxoplasma gondii [16] = assay: Antiparasitic activity against Toxoplasma gondii RH tachyzoites infected in human HeLa cells assessed as decrease in cell shrinkage at 100 uM after 24 hrs by inverted optical microscopic analysis; type: functional, organism-based
Toxoplasma gondii [17] = assay: Antiparasitic activity against Toxoplasma gondii RH infected in Kunming mouse assessed as inhibition of number of intraperitoneal tachyzoite in abdominal cavity at 200 mg/kg, po qd administered via gavage for 4 consecutive days measured on day 5 by light microscopic analysis relative to control; type: functional

SMILES	IC50 (HeLa)	selectivity ratio [1]	IC50 (Toxoplasma gondii [2])	also measured
COc1ccc(C[C@H]2COC(=O)[C@@H]2Cc2ccc(OCC(=O)N3CCCCC3)c(OC)c2)cc1OC	293 µM	0.94	313 µM	–
COc1ccc(C[C@H]2COC(=O)[C@@H]2Cc2ccc(OCC(=O)Nc3ccc(C)cc3)c(OC)c2)cc1OC	228 µM	0.71	322 µM	–
COC(=O)CC[C@H](NC(=O)CCC(=O)Oc1ccc(C[C@H]2C(=O)OC[C@@H]2Cc2ccc(OC)c(OC)c2)cc1OC)C(=O)OC	95.7 µM	0.61	157 µM	–
COc1ccc(C[C@H]2COC(=O)[C@@H]2Cc2ccc(OCc3cn(Cc4ccc(F)cc4)nn3)c(OC)c2)cc1OC	198 µM	< 0.33	≥ 600 µM	–
COc1ccc(C[C@H]2COC(=O)[C@@H]2Cc2ccc(OCc3cn(-c4ccc(Cl)cc4)nn3)c(OC)c2)cc1OC	279 µM	1	278 µM	–
COc1ccc(C[C@H]2COC(=O)[C@@H]2Cc2ccc(OCc3cn(-c4cccc(Cl)c4)nn3)c(OC)c2)cc1OC	493 µM	1.83	269 µM	–
COC(=O)CNC(=O)CCC(=O)Oc1ccc(C[C@H]2C(=O)OC[C@@H]2Cc2ccc(OC)c(OC)c2)cc1OC	179 µM	1.14	157 µM	–
CCN(CC)C(=O)COc1ccc(C[C@H]2C(=O)OC[C@@H]2Cc2ccc(OC)c(OC)c2)cc1OC	188 µM	0.48	388 µM	–
COc1ccc(C[C@H]2COC(=O)[C@@H]2Cc2ccc(OCc3cn(Cc4ccccc4)nn3)c(OC)c2)cc1OC	346 µM	0.53	651 µM	–
COc1ccc(C[C@H]2COC(=O)[C@@H]2Cc2ccc(OCc3cn(Cc4ccc(Cl)cc4)nn3)c(OC)c2)cc1OC	242 µM	0.97	251 µM	–
COc1ccc(-n2cc(COc3ccc(C[C@H]4C(=O)OC[C@@H]4Cc4ccc(OC)c(OC)c4)cc3OC)nn2)cc1	≥ 600 µM	–	≥ 600 µM	–
COC(=O)[C@H](CCSC)NC(=O)CCC(=O)Oc1ccc(C[C@H]2C(=O)OC[C@@H]2Cc2ccc(OC)c(OC)c2)cc1OC	199 µM	1.2	165 µM	–
COc1ccc(C[C@H]2COC(=O)[C@@H]2Cc2ccc(OC(=O)CCC(=O)N3CCCC3)c(OC)c2)cc1OC	201 µM	1.74	115 µM	–
COc1ccc(C[C@H]2COC(=O)[C@@H]2Cc2ccc(OC(=O)CCC(=O)N3CCCCC3)c(OC)c2)cc1OC	128 µM	3.12	41 µM	–
COc1ccc(C[C@H]2COC(=O)[C@@H]2Cc2ccc(OCc3cn(-c4ccc(C)cc4)nn3)c(OC)c2)cc1OC	≥ 600 µM	> 1.64	366 µM	–
COc1ccc(C[C@H]2COC(=O)[C@@H]2Cc2ccc(OCc3cn(-c4ccccc4)nn3)c(OC)c2)cc1OC	124 µM	0.92	136 µM	–

SMILES	IC50 (HeLa)	selectivity ratio [1]	IC50 (Toxoplasma gondii [2])	also measured
COc1ccc(C[C@H]2COC(=O)[C@@H]2Cc2ccc(OCC(=O)N3CCCC3)c(OC)c2)cc1OC	≥ 600 µM	> 1.78	336 µM	–
COc1ccc(C[C@H]2COC(=O)[C@@H]2Cc2ccc(OCc3cn(Cc4ccccc4F)nn3)c(OC)c2)cc1OC	≥ 600 µM	> 35.1	17.1 µM	mortality (Toxoplasma gondii [3]): 10 days; Activity (Toxoplasma gondii [4]): inactive; Activity (Toxoplasma gondii [5]): Active; Activity (Toxoplasma gondii [6]): Active; survival at 100 mg/kg (Toxoplasma gondii [7]): 16%; survival at 100 µM (Toxoplasma gondii [8]): 68.4%; Activity (Toxoplasma gondii [9]): Active; Activity (Toxoplasma gondii [10]): Active; inhibition in vivo at 100 mg/kg (Toxoplasma gondii [11]): 66.9%; Activity (Toxoplasma gondii [12]): Active; Activity (Toxoplasma gondii [13]): Active; Activity (Toxoplasma gondii [14]): 28.4%
COc1ccc(C[C@H]2COC(=O)[C@@H]2Cc2ccc(OCC(=O)N3CCOCC3)c(OC)c2)cc1OC	≥ 600 µM	–	≥ 600 µM	–
CCN(CC)C(=O)CCC(=O)Oc1ccc(C[C@H]2C(=O)OC[C@@H]2Cc2ccc(OC)c(OC)c2)cc1OC	213 µM	1.04	206 µM	–
COC(=O)[C@@H]1CCCN1C(=O)CCC(=O)Oc1ccc(C[C@H]2C(=O)OC[C@@H]2Cc2ccc(OC)c(OC)c2)cc1OC	145 µM	3.31	43.9 µM	–
COc1ccc(C[C@H]2COC(=O)[C@@H]2Cc2ccc(OCc3cn(-c4ccc(F)cc4)nn3)c(OC)c2)cc1OC	≥ 600 µM	–	≥ 600 µM	–
COc1ccc(C[C@H]2COC(=O)[C@@H]2Cc2ccc(OCc3cn(Cc4ccccc4Cl)nn3)c(OC)c2)cc1OC	84.5 µM	3.48	24.3 µM	–
COc1ccc(C[C@H]2COC(=O)[C@@H]2Cc2ccc(OCc3cn(-c4ccc(Br)cc4)nn3)c(OC)c2)cc1OC	128 µM	0.3	429 µM	–
COc1cc(C[C@H]2C(=O)OC[C@@H]2Cc2ccc(OC)c(OC)c2)ccc1O [ARCTIGENIN]	573 µM	0.98	586 µM	mortality (Toxoplasma gondii [3]): 10 days; Activity (Toxoplasma gondii [15]): Active; Activity (Toxoplasma gondii [4]): inactive; Activity (Toxoplasma gondii [6]): Active; Activity (Toxoplasma gondii [16]): Active; survival at 100 mg/kg (Toxoplasma gondii [7]): 16%; Activity (Toxoplasma gondii [10]): Active; inhibition (Toxoplasma gondii [17]): Active; inhibition in vivo at 100 mg/kg (Toxoplasma gondii [11]): 75.9%; Activity (Toxoplasma gondii [12]): Active; Activity (Toxoplasma gondii [13]): Active; Activity (Toxoplasma gondii [14]): 18.4%
COC(=O)[C@@H](Cc1ccccc1)NC(=O)CCC(=O)Oc1ccc(C[C@H]2C(=O)OC[C@@H]2Cc2ccc(OC)c(OC)c2)cc1OC	357 µM	1.58	226 µM	–
CCN1CCN(C(=O)CCC(=O)Oc2ccc(C[C@H]3C(=O)OC[C@@H]3Cc3ccc(OC)c(OC)c3)cc2OC)CC1	190 µM	2.01	94.4 µM	–
COC(=O)[C@@H](NC(=O)CCC(=O)Oc1ccc(C[C@H]2C(=O)OC[C@@H]2Cc2ccc(OC)c(OC)c2)cc1OC)C(C)C	64 µM	1.96	32.7 µM	–
COC(=O)[C@H](CC(C)C)NC(=O)CCC(=O)Oc1ccc(C[C@H]2C(=O)OC[C@@H]2Cc2ccc(OC)c(OC)c2)cc1OC	53.2 µM	0.85	62.5 µM	–
COC(=O)[C@@H](NC(=O)CCC(=O)Oc1ccc(C[C@H]2C(=O)OC[C@@H]2Cc2ccc(OC)c(OC)c2)cc1OC)c1ccccc1	78.1 µM	0.92	84.4 µM	–
COC(=O)[C@H](Cc1ccccc1)NC(=O)CCC(=O)Oc1ccc(C[C@H]2C(=O)OC[C@@H]2Cc2ccc(OC)c(OC)c2)cc1OC	≥ 600 µM	–	≥ 600 µM	–

Reference: ChEMBL document CHEMBL4265935, “Synthesis and evaluation of novel arctigenin derivatives as potential anti-Toxoplasma gondii agents” (Eur J Med Chem, 2018)
